US10745390B2, “Small molecule activators of mitochondrial function” (THE TRUSTEES OF THE UNIVERSITY OF PENNSYLVANIA, priority 2008, dated 2020)

Experiments:
[1] = system: yeast lacking Yfh1p; test: Yeast-based screening assay (WST-1 tetrazolium dye reduction); assay type: cell-based; settings: glycerol medium, 72 h, OD450, single dose 50 uM, activity threshold >1.32 fold increase in absorbance
Procedure: The aim of this assay is to identify compounds that can improve mitochondrial function in yeast lacking Yfh1p grown in a non-fermentable growth medium. The yeast Yfh1p expression construct used in this study has a galactose-inducible, glucose-repressible promoter driving Yfh1p production. Yfh1p is expressed when yeast are grown in the presence of galactose and inhibited when they are grown in the presence of dextrose. Growing the cells in the presence of dextrose not only turns off the expression of Yfh1p, but also leads to the depletion of Yfh1p in the cells. Transferring the Yfh1p-depleted cells into a non-fermentable, glycerol-based medium dictates that the yeast must use an oxidative pathway. […] Cleavage of the tetrazolium salt to formazan is accompanied by an increase in absorbance at 450 nm.
Compounds in the single dose assay were evaluated on the basis of Fold Induction compared to yeast only, and those in the dose response assay on percent activation, i.e. percent induction of tetrazolium dye reduction in yeast grown in a non-fermentable growth medium. Percent activation was calculated using the optical density in control wells with cells treated with positive control compound (25 uM methyl 4-(1, 2, 4, 5-tetraazin-3-yl) phenyl ether (MLSMR External ID: MLS000550612; PubChem SID: 14718875)) as full induction of tetrazolium dye reduction (100% activation), and wells with cells grown in medium without methyl 4-(1, 2, 4, 5-tetraazin-3-yl) phenyl ether as an indicator of 0% activation. Library compounds were screened at 50 uM. From the 50 uM single dose assay, 1250 compounds with significant tetrazolium dye reduction were selected for confirmatory dose response assay. These compounds were screened in a 10-point dilution series ranging from 0.01 to 100 uM.
The following screening protocol was followed. Yeast cells containing an inducible/repressible promoter for Yfh1p expression were cultured in induction medium (Yfh1 on) with Galactose as the carbon source, and then shifted to repression medium (Yfh1 off) with Dextrose as the carbon source (for 24 hours) to allow Yfh1 protein to decay. The cells were then incubated for 24 h in respiration-only medium (Yfh1 off) with Glycerol as the carbon source to allow cells to equilibrate, and then plated in 384 well plates in respiration-only medium (Yfh1 off) with glycerol as carbon source, in the presence of Tetrazolium dye (WST-1) for 72 hours.
Preparation of Assay • 1. Cells were streaked out on a YPGal agar plate and grown inverted for 3 days at 30 C. • 2. A colony was selected and 10 mL of YPGal medium inoculated and grown over night at 30 C with shaking. • 3. The cells were counted on a coulter counter, centrifuged at 1400 g for 5 min in dextrose (CSMM-D) medium, washed twice to remove all galactose, and resuspended in CSMM-D medium at a cell density of 2 to the power of 5 cells/mL. • 4. Frozen stocks were prepared at this point, in dextrose medium. For these dextrose stock solutions, enough culture was grown in dextrose media over night with shaking at 30 C, to get a cell density of ˜2 to the power of 7 cells/mL. The cells were centrifuged at 1400 g for 5 min and the pellet resuspended in glycerol freezing medium at a cell density of 2 to the power of 8 cells/mL. • 5. The day before the screen, frozen culture was thawed at room temperature and resuspended in glycerol (CSMM-G) medium. • 6. The culture was grown over night at 30 C with shaking and the cells counted and diluted in CSMM-G medium for a final cell density of 4 to the power of 6 cells/mL. • 7. Methyl 4-(1, 2, 4, 5-tetraazin-3-yl) phenyl ether (positive control), CSMM-G medium alone (negative control) and compounds were plated with DMSO at 200× concentration (final concentrations: methyl 4-(1, 2, 4, 5-tetraazin-3-yl) phenyl ether 25 uM, compounds 50 uM, DMSO 0.5%) in 384-well plates: 125 nL/well. For the dose response assay, compounds were plated in a 10-point dilution series ranging from 0.01 to 100 uM, at 1% DMSO. • 8. […]

[2] = system: I154F FA cells; test: I154F frataxin point-mutation model, rescue from FAC and/or BSO; assay type: cell-based, murine
Text: 2. Preliminary testing in the I154F frataxin point-mutation model determines whether test compounds can rescue I154F FA cells from lethal concentrations of FAC and/or BSO. Among the mammalian-cell models that have, or recapitulate, the genetic defects underlying FA, by far the most robust (and best validated) is the I154F murine frataxin point-mutation model developed by Puccio and colleagues (Calmels, N. et al.), the first cellular model based on frataxin missense mutations that reproduces spontaneously the defects associated with Friedreich ataxia (PLoS One 4, e6379 (2009)). […] This model is also extremely stable, with phenotypes unchanged after months of continuous culture. In contrast, the mutations in available primary human FA fibroblasts are GAA repeat expansions in the first intron of the FXN gene; occasional cells in which these expansions contract have a growth advantage and take over the culture, diluting the phenotype and increasing variance in various measures of compound efficacy.
In another screen, testing was conducted in the I154F point-mutation model as described above, to determine whether test compounds could rescue I154F FA cells from lethal or sublethal concentrations of FAC and/or BSO. Effective in this screen were the following compounds: N-[(5-chloro-8-hydroxyquinolin-7-yl)-thiophen-2-ylmethyl]-3-phenylpropanamide, N-[(5-chloro-8-hydroxyquinolin-7-yl)-thiophen-2-ylmethyl]pentanamide, N-[(5-chloro-8-hydroxyquinolin-7-yl)-furan-2-ylmethyl]-3-phenylpropanamide, N-[(5-chloro-8-hydroxyquinolin-7-yl)-furan-2-ylmethyl]propanamide, N-[(5-chloro-8-hydroxyquinolin-7-yl)-furan-2-ylmethyl]pentanamide, N-[(5-chloro-8-hydroxyquinolin-7-yl)-tolyl]-3-phenylpropanamide, N-[(5-chloro-8-hydroxyquinolin-7-yl)-(3-methoxyphenyl)methyl]-3-phenylpropanamide, N-[(5-chloro-8-hydroxyquinolin-7-yl)-(4-dimethylaminophenyl)methyl]-3-phenylpropanamide, N-[(5-chloro-8-hydroxyquinolin-7-yl)-(4-chlorophenyl)methyl]-3-phenylpropanamide, N-[(5-chloro-8-hydroxyquinolin-7-yl)-(3-chlorophenyl)methyl]-3-phenylpropanamide, N-[(5-chloro-8-hydroxyquinolin-7-yl)-(2-chlorophenyl)methyl]-3-phenylpropanamide, N-[(5-chloro-8-hydroxyquinolin-7-yl)-(3,4-dimethoxyphenyl)methyl]-3-phenylpropanamide, N-[(5-chloro-8-hydroxyquinolin-7-yl)-(2,4-dimethoxyphenyl)methyl]-3-phenylpropanamide, N-[(5-chloro-8-hydroxyquinolin-7-yl)-(3,4,5-trimethoxyphenyl)methyl]-3-phenylpropanamide, N-[(5-chloro-8-hydroxyquinolin-7-yl)-(2-bromophenyl)methyl]-3-phenylpropanamide, N-[(5-chloro-8-hydroxyquinolin-7-yl)-p-tolyl-methyl]-3-phenylpropanamide, N-[(5-chloro-8-hydroxyquinolin-7-yl)-(2-hydroxyphenyl)methyl]-3-phenylpropanamide (1a-18), and N-[(5-chloro-8-hydroxyquinolin-7-yl)-(4-methoxyphenyl)methyl]-3-phenylpropanamide.

[3] = system: superoxide dismutase activity; test: Superoxide dismutase activity in vitro after metal pre-loading (Fluka assay kit); assay type: biochemical
Text: 3. Evaluate the catalytic activity of the compound by pre-loading with manganese, iron, or other metal and assaying superoxide dismutase and/or catalase activity in vitro. This assay helps identify a possible mechanism of action that would help explain the unusual combination of high potency, and high specificity, of the compounds embodied herein. […] Yet compounds that act catalytically are usually relatively non-specific, whereas the compounds embodied herein were confirmed active in only one assay (the FA yeast assay mentioned above) of 168 high-throughput screening assays in which they have been tested to date. With no duty to disclose the mechanism of action of the compounds embodied here and without being bound based thereon, it is hypothesized that the compounds embodied herein are chelating iron within cells and acting as superoxide dismutase (SOD) and/or catalase mimetics.
In a further evaluation, the catalytic activity of the test compound was measured by pre-loading with manganese, or various forms of iron, or other metals, and assaying superoxide dismutase activity in vitro using an assay kit from Fluka. Control levels of inhibition of SOD activity was about 4.5%, and 300 nM compound N-[(5-chloro-8-hydroxyquinolin-7-yl)-thiophen-2-ylmethyl]-3-phenylpropanamide pre-loaded with manganese about 5%. However, preloading with iron acetate increased inhibition to about 40%.

[4] = system: complex I; test: Complex I inhibition in SH-SY5Y cells; assay type: cell-based
Procedure: Step 5. Screening in mammalian cells treated with inhibitors of specific complexes of the ETC. […] Antimycin A and oligomycin kill SH-SY5Y cells in the high nM range, as assessed by LDH leakage and DNA fragmentation.
Further screening in mammalian cells treated with inhibitors of specific complexes of the ETC is conducted. […] Antimycin A and oligomycin kill SH-SY5Y cells in the high nM range, as assessed by LDH leakage and DNA fragmentation.

[5] = system: SH-SY5Y cells; test: Killing of SH-SY5Y cells by ETC inhibitors; assay type: cell-based; settings: for concentration range killing SH-SY5Y cells: LDH leakage and DNA fragmentation
Procedure: Step 5. Screening in mammalian cells treated with inhibitors of specific complexes of the ETC.
Further screening in mammalian cells treated with inhibitors of specific complexes of the ETC is conducted.

Compound | active in the screen (tetrazolium dye reduction) [1] | rescue of I154F FA cells from lethal or sublethal concentrations of FAC and/or BSO [2] | concentration range killing SH-SY5Y cells [5] | also measured
O=C(CCc1ccccc1)NC(c1cccs1)c1cc(Cl)c2cccnc2c1O (stereo not drawn) [N-[(5-chloro-8-hydroxyquinolin-7-yl)-thiophen-2-ylmethyl]-3-phenylpropanamide] | active | Effective |  | inhibition of SOD activity ([3]; 300 nM compound pre-loaded with manganese, control about 4.5%): about 5%; increase in inhibition by iron ([3]; iron acetate versus manganese pre-loading): eight-fold; inhibition of SOD activity ([3]; preloading with iron acetate): about 40%
CCCCC(=O)NC(c1cccs1)c1cc(Cl)c2cccnc2c1O (stereo not drawn) [N-[(5-chloro-8-hydroxyquinolin-7-yl)-thiophen-2-ylmethyl]pentanamide] | active | Effective |  | 
CC(=O)NC(c1ccc(C)cc1)c1cc([N+](=O)[O-])c2cccnc2c1O (stereo not drawn) [N-[{8-hydroxy-5-nitro-7-quinolinyl}(4-methylphenyl)methyl]acetamide] | active |  |  | 
C=C(C)[C@H]1Cc2c(ccc3c2O[C@@H]2COc4cc(OC)c(OC)cc4[C@@H]2C3=O)O1 [Rotenone] |  |  |  | concentration range inhibiting complex I [4]: nM range; death ([5]; trypan blue exclusion, after 7 days at 60 μM): 90%
CC[C@H]1/C=C/C=C/C[C@@H](C)[C@H](O)[C@@](C)(O)C(=O)[C@@H](C)[C@H](O)[C@@H](C)C(=O)[C@@H](C)[C@H](O)[C@@H](C)/C=C/C(=O)O[C@@H]2[C@H](C)[C@H](CC1)O[C@]1(CC[C@H](C)[C@H](C[C@@H](C)O)O1)[C@H]2C [oligomycin] |  |  | high nM range | 
Antimycin A |  |  | high nM range | 
